Our source for the IC50, EC50 and melting point values is US7772183B2 (Bristol-Myers Squibb Company, priority 2005, dated 2010).

Data set [1] addresses T1, HCV NS3/4A protease complex, BMS strain (UniProt P27958, species not given/STRAIN_BMS).
T1 construct: said of H77 and J4L6S; fused on or other part: A three-lysine solubilising tail at the C-terminus of NS4A and a His tag (pET21b, Ni-NTA purification)
Briefly: FRET peptide assay to monitor HCV NS3/4A proteolytic activity (BMS strain). It counts as biochemical, Hepatitis C virus (genotype 1a). To be noted: NS3/4A BMS strain; read-out: IC50 Range. The text has this: HCV NS3 protease complexes, derived from the BMS strain, H77 strain or J4L6S strain, were generated, as described below. These purified recombinant proteins were generated for use in a homogeneous assay (see below) to provide an indication of how effective compounds of the present disclosure would be in inhibiting HCV NS3 proteolytic activity.
Serum from an HCV-infected patient was obtained from Dr. T. Wright, San Francisco Hospital. An engineered full-length cDNA (compliment deoxyribonucleic acid) template of the HCV genome (BMS strain) was constructed from DNA fragments obtained by reverse transcription-PCR (RT-PCR) of serum RNA (ribonucleic acid) and using primers selected on the basis of homology between other genotype 1a strains. From the determination of the entire genome sequence, a genotype 1a was assigned to the HCV isolate according to the classification of Simmonds et al. (See P Simmonds, K A Rose, S Graham, S W Chan, F McOmish, B C Dow, E A Follett, P L Yap and H Marsden, J. Clin. Microbiol., 31(6), 1493-1503 (1993)). […] The infectious clones, H77 (1a genotype) and J4L6S (1b genotype) were obtained from R. Purcell (NIH) and the sequences are published in Genbank (AAB67036, see Yanagi, M., Purcell, R. H., Emerson, S. U. and Bukh, J. Proc. Natl. Acad. Sci. U.S.A. 94(16), 8738-8743 (1997); AF054247, see Yanagi, M., St Claire, M., Shapiro, M., Emerson, S. U., Purcell, R. H. and Bukh, J, Virology 244 (1), 161-172. (1998)).
The H77 and J4L6S strains were used for production of recombinant NS3/4A protease complexes. DNA encoding the recombinant HCV NS3/4A protease complex (amino acids 1027 to 1711) for these strains were manipulated as described by P. Gallinari et al. (see Gallinari P, Paolini C, Brennan D, Nardi C, Steinkuhler C, De Francesco R. Biochemistry. 38(17):5620-32, (1999)). Briefly, a three-lysine solubilizing tail was added at the 3′-end of the NS4A coding region. The cysteine in the P1 position of the NS4A-NS4B cleavage site (amino acid 1711) was changed to a glycine to avoid the proteolytic cleavage of the lysine tag. Furthermore, a cysteine to serine mutation was introduced by PCR at amino acid position 1454 to prevent the autolytic cleavage in the NS3 helicase domain. The variant DNA fragment was cloned in the pET21b bacterial expression vector (Novagen) and the NS3/4A complex was expressed in Escherichia coli strain BL21 (DE3) (Invitrogen) following the protocol described by P. Gallinari et al. (see Gallinari P, Brennan D, Nardi C, Brunetti M, Tomei L, Steinkuhler C, De Francesco R., J Virol. 72(8):6758-69 (1998)) with modifications. Briefly, the NS3/4A protease complex expression was induced with 0.5 mM Isopropyl β-D-1-thiogalactopyranoside (IPTG) for 22 hours (h) at 20° C. A typical fermentation (1 Liter (L)) yielded approximately 10 grams (g) of wet cell paste. The cells were resuspended in lysis buffer (10 mL/g) consisting of 25 mM N-(2-Hydroxyethyl)Piperazine-N′-(2-Ethane Sulfonic acid) (HEPES), pH 7.5, 20% glycerol, 500 mM Sodium Chloride (NaCl), 0.5% Triton X-100, 1 microgram/milliliter (“μg/mL”) lysozyme, 5 mM Magnesium Chloride (MgCl2), 1 μg/ml Dnasel, 5 mM β-Mercaptoethanol (βME), Protease inhibitor-Ethylenediamine Tetraacetic acid (EDTA) free (Roche), homogenized and incubated for 20 minutes (min) at 4° C. The homogenate was sonicated and clarified by ultra-centrifugation at 235000 g for 1 h at 4° C. Imidazole was added to the supernatant to a final concentration of 15 mM and the pH adjusted to 8.0. The crude protein extract was loaded on a Nickel-Nitrilotriacetic acid (Ni-NTA) column pre-equilibrated with buffer B (25 mM HEPES, pH 8.0, 20% glycerol, 500 mM NaCl, 0.5% Triton X-100, 15 mM imidazole, 5 mM βME). The sample was loaded at a flow rate of 1 mL/min. The column was washed with 15 column volumes of buffer C (same as buffer B except with 0.2% Triton X-100). The protein was eluted with 5 column volumes of buffer D (same as buffer C except with 200 mM Imidazole). […]

Data set [2] has as its system HCV replicon in HUH-7 cells. Briefly: HCV replicon FRET assay. It counts as cell-based, Hepatitis C virus (strain 1b). Particulars: Hepatitis C virus, Huh-7; HCV replicon, for compounds tested; read-out: EC50 Range. The text has this: An HCV replicon whole cell system was established as described by Lohmann V, Komer F, Koch J, Herian U, Theilmann L, Bartenschlager R., Science 285(5424):110-3 (1999). This system enabled us to evaluate the effects of our HCV Protease compounds on HCV RNA replication. Briefly, using the HCV strain 1b sequence described in the Lohmann paper (Assession number: AJ238799), an HCV cDNA was synthesized by Operon Technologies, Inc. (Alameda, Calif.), and the full-length replicon was then assembled in plasmid pGem9zf(+) (Promega, Madison, Wis.) using standard molecular biology techniques. The replicon consists of (i) the HCV 5′ UTR fused to the first 12 amino acids of the capsid protein, (ii) the neomycin phosphotransferase gene (neo), (iii) the IRES from encephalomyocarditis virus (EMCV), and (iv) HCV NS3 to NS5B genes and the HCV 3′ UTR. Plasmid DNAs were linearized with Scal and RNA transcripts were synthesized in vitro using the T7 MegaScript transcription kit (Ambion, Austin, Tex.) according to manufacturer's directions. In vitro transcripts of the cDNA were transfected into the human hepatoma cell line, HUH-7. […] Resulting cell lines were characterized for positive and negative strand RNA production and protein production over time.
The HCV replicon FRET assay was developed to monitor the inhibitory effects of compounds described in the disclosure on HCV viral replication. HUH-7 cells, constitutively expressing the HCV replicon, were grown in Dulbecco's Modified Eagle Media (DMEM) (Gibco-BRL) containing 10% Fetal calf serum (FCS) (Sigma) and 1 mg/ml G418 (Gibco-BRL). Cells were seeded the night before (1.5×10^4 cells/well) in 96-well tissue-culture sterile plates. Compound and no compound controls were prepared in DMEM containing 4% FCS, 1:100 Penicillin/Streptomysin (Gibco-BRL), 1:100 L-glutamine and 5% DMSO in the dilution plate (0.5% DMSO final concentration in the assay). Compound/DMSO mixes were added to the cells and incubated for 4 days at 37° C. After 4 days, cells were first assessed for cytotoxicity using alamar Blue (Trek Diagnotstic Systems) for a CC50 reading. The toxicity of compound (CC50) was determined by adding 1/10th volume of alamar Blue to the media incubating the cells. After 4 hours, the fluorescence signal from each well was read, with an excitation wavelength at 530 nm and an emission wavelength of 580 nm, using the Cytofluor Series 4000 (Perspective Biosystems). Plates were then rinsed thoroughly with Phosphate-Buffered Saline (PBS) (3 times 150 μl). The cells were lysed with 25 μl of a lysis assay reagent containing an HCV protease substrate (5× cell Luciferase cell culture lysis reagent (Promega #E153A) diluted to 1× with distilled water, NaCl added to 150 mM final, the FRET peptide substrate (as described for the enzyme assay above) diluted to 10 μM final from a 2 mM stock in 100% DMSO. […]. The plate was then placed into the Cytofluor 4000 instrument which had been set to 340 nm excitation/490 nm emission, automatic mode for 21 cycles and the plate read in a kinetic mode. EC50 determinations were carried out as described for the IC50 determinations.
For orientation: In antiviral work, replicon cells carry a viral genome segment that copies itself.

T1 sequence (P27958 1027-1657, change not shown, one chain of several): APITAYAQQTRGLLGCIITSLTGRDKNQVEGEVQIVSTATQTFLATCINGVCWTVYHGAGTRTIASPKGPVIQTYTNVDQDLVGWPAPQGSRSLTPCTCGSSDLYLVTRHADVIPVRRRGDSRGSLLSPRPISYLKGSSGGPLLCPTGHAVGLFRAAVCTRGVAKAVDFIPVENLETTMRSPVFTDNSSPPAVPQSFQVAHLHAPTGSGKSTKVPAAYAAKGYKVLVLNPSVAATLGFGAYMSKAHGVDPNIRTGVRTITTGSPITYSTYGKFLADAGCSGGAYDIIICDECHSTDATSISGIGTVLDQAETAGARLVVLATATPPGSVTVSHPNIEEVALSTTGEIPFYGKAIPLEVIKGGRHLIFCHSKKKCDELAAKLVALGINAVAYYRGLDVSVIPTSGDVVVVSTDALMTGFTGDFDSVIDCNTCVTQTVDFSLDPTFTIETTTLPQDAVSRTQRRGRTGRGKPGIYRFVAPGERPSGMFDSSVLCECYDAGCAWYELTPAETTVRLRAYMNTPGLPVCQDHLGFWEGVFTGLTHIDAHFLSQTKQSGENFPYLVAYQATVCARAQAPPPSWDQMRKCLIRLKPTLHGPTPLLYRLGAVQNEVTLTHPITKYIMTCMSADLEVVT

By IC50 is commonly meant the point on the concentration scale where inhibition reaches its midpoint. In general, EC50 refers to the midpoint of the concentration-response curve. One may read the melting point as the temperature of the solid-liquid transition. In turn, `COc1ccc(C(=O)O[C@@H]2C[C@H]3C(=O)N[C@]4(C(=O)NS(=O)(=O)C5CC5)C[C@H]4/C=C\COCCC[C@H](NC(=O)OC(C)(C)C)C(=O)N3C2)c(OC)c1` [Compound 8, 18-(2,4-dimethoxybenzoyloxy)-14-tert-butoxycarbonylamino-4-cyclopropylsulfonylaminocarbonyl-2,15-dioxo-3,16-diaza-10-oxatricyclo-[14.3.0.0^4,6]-nonadec-7-ene] registered a melting point of 122 to 124 °C. In data set [1], the IC50 is less than 100 nM. Further, the EC50 in data set [2] was in the range of 100 to 1000 nM.
The corresponding values for `CC(C)(C)OC(=O)N[C@H]1CCCOC/C=C\[C@@H]2C[C@@]2(C(=O)NS(=O)(=O)C2CC2)NC(=O)[C@@H]2C[C@@H](OC(=O)CC3CCCCC3)CN2C1=O` [Compound 6, 18-cyclohexaneacetyloxy-14-tert-butoxycarbonylamino-4-cyclopropylsulfonylaminocarbonyl-2,15-dioxo-3,16-diaza-10-oxatricyclo-[14.3.0.0^4,6]-nonadec-7-ene] are 107 to 109 °C, less than 100 nM and more than 1000 nM.
`CC(C)(C)OC(=O)N[C@H]1COCCC/C=C\[C@@H]2C[C@@]2(C(=O)NS(=O)(=O)C2CC2)NC(=O)[C@@H]2C[C@@H](OC(=O)c3ccccc3)CN2C1=O` [Compound 12, 18-benzoyloxy-14-tert-butoxycarbonylamino-4-cyclopropylsulfonylaminocarbonyl-2,15-dioxo-3,16-diaza-12-oxatricyclo-[14.3.0.0^4,6]-nonadec-7-ene] registered a melting point of 135 to 137 °C. The IC50 in data set [1] was less than 100 nM. The EC50 in data set [2] was in the range of 100 to 1000 nM.
As for `CC(C)(C)OC(=O)N[C@H]1COCCC/C=C\[C@@H]2C[C@@]2(C(=O)NS(=O)(=O)C2CC2)NC(=O)[C@@H]2C[C@@H](OC(=O)Nc3ccc(-c4ccccc4)cc3)CN2C1=O` [Compound 39, 18-(4-biphenylaminocarbonyloxy)-14-tert-butoxycarbonylamino-4-cyclopropylsulfonylaminocarbonyl-2,15-dioxo-3,16-diaza-12-oxatricyclo-[14.3.0.0^4,6]-nonadec-7-ene], the melting point was 170 to 173 °C. Further, in data set [1], the IC50 is more than 1000 nM.
For `CN(C)S(=O)(=O)NC(=O)[C@@]12C[C@H]1/C=C\CCCCC[C@H](NC(=O)OC(C)(C)C)C(=O)N1C[C@H](OC(=O)c3ccc4c(c3)OCCO4)C[C@H]1C(=O)N2`, the IC50 in data set [1] was less than 100 nM. Besides, in data set [2], the EC50 was less than 100 nM.
For `CC(C)(C)OC(=O)N[C@H]1CCCCC/C=C\[C@@H]2C[C@@]2(C(=O)O)NC(=O)[C@@H]2C[C@@H](OC(=O)Nc3ccccc3-c3ccccc3)CN2C1=O` [Compound 47], the IC50 in data set [1] is more than 1000 nM.
For `CC(C)(C)OC(=O)N[C@H]1CCCCC/C=C\[C@@H]2C[C@@]2(C(=O)NS(=O)(=O)C2CC2)NC(=O)[C@@H]2C[C@@H](OC(=O)c3cccc(F)c3)CN2C1=O`, the IC50 in data set [1] was less than 100 nM. Besides, the EC50 in data set [2] is less than 100 nM.
For the molecule `CC(C)(C)OC(=O)N[C@H]1CN(C2CC2)CCC/C=C\[C@@H]2C[C@@]2(C(=O)NS(=O)(=O)C2CC2)NC(=O)[C@@H]2C[C@@H](OC(=O)N3Cc4cccc(F)c4C3)CN2C1=O` [Compound 50], the IC50 in data set [1] is less than 100 nM. Moreover, the EC50 in data set [2] is less than 100 nM.
In the case of `CC(C)(C)OC(=O)N[C@H]1CN(C2CC2)CCC/C=C\[C@@H]2C[C@@]2(C(=O)NS(=O)(=O)C2CC2)NC(=O)[C@@H]2C[C@@H](OC(=O)c3ccc4nccnc4c3)CN2C1=O` [Compound 49], in data set [1], the IC50 was less than 100 nM. In data set [2], the EC50 is less than 100 nM.
As to `CC(C)(C)OC(=O)N[C@H]1COCCC/C=C\[C@@H]2C[C@@]2(C(=O)NS(=O)(=O)C2CC2)NC(=O)[C@@H]2C[C@@H](OC(=O)N3Cc4cccc(F)c4C3)CN2C1=O` [Compound 46, 18-(2-[4-fluoroisoindoline]carbonyloxy)-14-tert-butoxycarbonylamino-4-cyclopropylsulfonylaminocarbonyl-2,15-dioxo-3,16-diaza-12-oxatricyclo-[14.3.0.0^4,6]-nonadec-7-ene], the IC50 in data set [1] is less than 100 nM. In data set [2], the half-maximal effective concentration (EC50) is less than 100 nM.
Regarding `CC(C)(C)OC(=O)N[C@H]1CCCCC/C=C\[C@@H]2C[C@@]2(C(=O)NS(=O)(=O)C2CC2)NC(=O)[C@@H]2C[C@@H](OC(=O)Nc3ccccc3-c3ccccc3)CN2C1=O` [Compound 48], the IC50 in data set [1] was less than 100 nM. The EC50 in data set [2] was less than 100 nM.
Regarding `CC(C)(C)OC(=O)N[C@H]1CCCCC/C=C\[C@@H]2C[C@@]2(C(=O)NS(=O)(=O)C2CC2)NC(=O)[C@@H]2C[C@@H](OC(=O)c3cc4ccccc4o3)CN2C1=O`, the IC50 in data set [1] was less than 100 nM. The EC50 in data set [2] was less than 100 nM.
For `Cc1onc(-c2ccccc2)c1C(=O)O[C@@H]1C[C@H]2C(=O)N[C@]3(C(=O)NS(=O)(=O)C4CC4)C[C@H]3/C=C\CCCCC[C@H](NC(=O)OC(C)(C)C)C(=O)N2C1`, in data set [1], the IC50 is less than 100 nM. Further, the EC50 in data set [2] was less than 100 nM.
